pIC50: −log10 of the molar value.
Key:
[1] = biological target: T1, bovine mitochondria (ANT) (Bos taurus, UniProt P02722); assay: 125I-compound 24 competition binding (Tube Assay), beef heart mitochondria
T1 construct: from tissue; host or cells: bovine heart mitochondria
T1 sequence (P02722 2-298 limits assumed): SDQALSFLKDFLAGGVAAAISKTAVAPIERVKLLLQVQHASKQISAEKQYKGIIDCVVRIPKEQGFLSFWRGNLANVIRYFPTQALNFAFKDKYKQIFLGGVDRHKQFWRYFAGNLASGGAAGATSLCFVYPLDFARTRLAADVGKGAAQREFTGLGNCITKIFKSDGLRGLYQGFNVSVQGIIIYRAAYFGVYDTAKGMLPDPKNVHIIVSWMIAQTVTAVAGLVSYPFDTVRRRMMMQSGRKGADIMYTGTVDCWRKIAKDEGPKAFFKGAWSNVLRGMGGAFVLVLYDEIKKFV
Procedure: Bovine mitochondria were prepared as follows: Essentially all of the fat and cholesterol […] was removed from two bovine hearts which were then cut into 1-inch cubes. The cubes were ground in a meat grinder using the fine setting. Three hundred (300) […] portions of the ground heart were weighed out and, to each was added 400 ml of Isolation Buffer (IB; 250 mM sucrose, 1 mM sodium succinate, 0.2 mM K^+EDTA, 10 mM Tris-base, pH 7.8). (All buffers were filter sterilized, and column buffers were degassed, and, unless otherwise noted, all steps were carried out at 0 to 4° C. on ice or in pre-cooled rotors and centrifuges.) The preparations were mixed in a blender two times for 15 seconds on high setting and, in between and after blends, the pH was adjusted to 7.8 with 2M Tris-base. The homogenate was centrifuged for 20 minutes at 1,200×g, and the supernatant was poured through two layers of cheese cloth and adjusted to pH 7.8 with 2M Tris-base. The supernatant was then centrifuged for 30 minutes at […]. The supernatant was decanted, and the buff-colored outer pellet was dislodged with about 10 ml of IB and discarded. The brown inner pellet (heavy mitochondria) was resuspended in IB (about 10 ml per pellet). The pellets were homogenized in a glass-teflon homogenizer (2 passes at high drill speed). Samples were combined and centrifuged for 30 minutes at 11,000×g. The supernatant was decanted, and the pellets were resuspended in 60 ml of IB per 900 gm of ground heart. This centrifugation step was repeated and the pellets were finally resuspended in IB (60 ml per 900 gm of ground heart). One kilogram of beef heart typically yields about one (1) gram of mitochondria
The mitochondrial preparations were divided into aliquots (typically, 50μl for T. ni mitochondria or 20 μl for bovine mitochondria) and then either used directly in assays or flash frozen and stored at −80° C. The total protein content in the mitochondrial preparations was determined using the enhanced protocol (30 minutes at 60° C.; see http://www.ruf.rice.edu/˜bioslabs/methods/protein/BCA.html) of the bicinchoninic acid (BCA) assay (available in kit form from Pierce, Rockford, Ill.).
In the “Tube Assay,” mitochondria (from about 1 to 10 μg of total protein) were resuspended in 100 μl of Tris-KCl buffer with 0.1% BSA, pH 7.4. ^125I-labeled compound 24 (Example 11) was added to a final concentration of 0.5 nM. When used, competitors were added at these concentration ranges: unlabeled atractyloside or compound 24 final concentration from 5 nM to 10 μM; unlabeled ADP (a lower affinity competitor) was added at a final concentration of 500 nM to 1 mM.
The reaction mixes were incubated on ice for 60 minutes and then pelleted by centrifugation (approximately 16,000×g) for 11 minutes at 4° C.
Unbound ^125I-compound 24 was removed by aspiration. The pellets were contact-washed with Tris-KCl buffer, pH 7.4, and recentrifuged. The resultant pellets were aspirated and the radioactivity (dpm) in each was determined by gamma counting.

[2] = biological target: T2, GST-huANT3 recombinantly produced in E. coli (membranes) (Homo sapiens, UniProt P12236); assay: Saturation binding of [32P]ATP to E. coli membranes, huANT3-producing cells; details: atractyloside 10μM added to the assay
T2 construct: Gly-Ser-Pro-Gly-Ile-Leu-Met, where “Met” indicates the amino acid encoded by the translation initiation codon of huANT3; made in house; host or cells: E. coli (crude membrane preparation)
T2 sequence (P12236 1-298): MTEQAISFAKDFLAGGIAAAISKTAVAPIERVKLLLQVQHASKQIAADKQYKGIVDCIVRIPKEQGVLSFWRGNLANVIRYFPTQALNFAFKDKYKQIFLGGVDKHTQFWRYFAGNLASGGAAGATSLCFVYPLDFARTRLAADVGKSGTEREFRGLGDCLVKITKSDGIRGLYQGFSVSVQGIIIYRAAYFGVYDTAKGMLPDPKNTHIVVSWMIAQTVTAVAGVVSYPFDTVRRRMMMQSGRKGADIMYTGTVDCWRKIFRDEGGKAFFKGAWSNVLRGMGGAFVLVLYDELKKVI
Procedure: Following arabinose induction, transformed or sham transformed (vector only) E coli were collected by centrifugation at 2000 g for 10 min. The bacterial pellets were resuspended in MSB, to which lysozyme (100 μg/ml) was added. After 20 min at room temperature, the lysates were subjected to one freeze-thaw cycle followed by sonication as described above. The resultant membrane preparation was used for binding assays.
[…] The membranes with bound ATP were sedimented by centrifugation at 5000 g for 5 min, and washed once with binding buffer. Membrane pellets were then mixed with 5 ml scintillation cocktail and counted.

## C=C1[C@@H]2CCC3[C@@](CC[C@@H]4[C@H](C(=O)O)C[C@@H](O[C@@H]5O[C@H](CO)[C@@H](OS(=O)(=O)[O-])[C@H](OS(=O)(=O)[O-])[C@H]5OC(=O)CC(C)C)C[C@@]34C)(C2)[C@@H]1O.[K+].[K+] (stereo partly shown) [ATR, atractyloside]
[1]; 0.5 nM 125I-compound 24, FIG. 17, read-out: IC50, competitive inhibition of 125I-compound 24 binding
  pIC50: ~7.36
[1]; 1 μg protein/tube, FIG. 13
  affinity relative to the low affinity ANT ligand ADP: about 1,000 fold
[1]; FIGS. 11, 13, 16
  competitive inhibition of 125I-compound 24 binding (in words): slightly higher affinity than compound 24
[2]
  effect on ATP binding: abolished

Reference: patent publication US6906175B2, “Production of adenine nucleotide translocator (ANT), novel ANT ligands and screening assays therefor” (priority 1998, dated 2005)
